Data published in paper PMC6072100, “Exploring the links between peptoid antibacterial activity and toxicity” (MedChemComm, 2017).
Where “and” joins values, the source holds several entries; their conditions need not be identical. Identical values can stand only once. Like-named read-outs stand apart in the source and are kept apart here. Square brackets hold non-standard residues; d marks the D form. Peptide text beside a SMILES is read from it. Gly(Nα-4-Cl-benzyl) = O=C(O)CNCc1ccc(Cl)cc1; N(4-F-Bzl)Gly = O=C(O)CNCc1ccc(F)cc1; Gly(N-2-aminoethyl) = NCCNCC(=O)O; Nspe = C[C@H](NCC(=O)O)c1ccccc1; Nlys = NCCCCNCC(=O)O

Assays:
Type in all cases: cell-based
[1] = test system: Escherichia coli K-12 wild-type strain (W3110/ATCC27325); conditions: for MIC E. coli: lowest concentration completely inhibiting growth, 37 °C, 16 h, range 2–100 μM
How it was run: (§1)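 Single colonies were grown 16–18 h at 37 °C in Iso-sensitest broth, brought to A650nm 0.07 and diluted tenfold. This inoculum met doubling dilutions of each peptoid (2–100 µM final), then incubated 16 h at 37 °C shaking before absorbance measurement.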

[2] = test system: Staphylococcus epidermidis (laboratory strain from clinical isolate); conditions: for MIC S. epidermidis: 16 h
How it was run: as §1

[3] = test system: Staphylococcus aureus (3R7089 strain Oxford/ATCC9144)
How it was run: as §1

[4] = test system: Pseudomonas aeruginosa PA01 (ATCC 15692)
How it was run: as §1

[5] = lowest concentration completely inhibiting growth, 37 °C, range 2–100 μM
[6] = lowest concentration completely inhibiting growth, 37 °C, 16 h, range 2–100 μM
[7] = laboratory strain from clinical isolate

Row | SMILES | MIC E. coli [1] | MIC S. epidermidis [2, 5] | MIC S. aureus [3, 6] | MIC P. aeruginosa [4, 6] | sensitivity of S. epidermidis (in words) ([2]; compared with the other bacteria tested) | MIC S. aureus ([3]; ATCC9144, 16 h) | MIC P. aeruginosa ([4]; ATCC 15692, 16 h) | activity against E. coli (in words) [1] | MIC S. epidermidis [2, 7] | activity against P. aeruginosa (in words) [4]
1 | C[C@@H](c1ccccc1)N(CC(N)=O)C(=O)CN(C(=O)CN(CCCCN)C(=O)CN(C(=O)CN(C(=O)CN(CCCCN)C(=O)CN(C(=O)CN(C(=O)CNCCCCN)[C@@H](C)c1ccccc1)[C@@H](C)c1ccccc1)[C@@H](C)c1ccccc1)[C@@H](C)c1ccccc1)[C@@H](C)c1ccccc1 [Peptoid 14, (NLysNspeNspe)3] (H-[Nlys][Nspe][Nspe][Nlys][Nspe][Nspe][Nlys][Nspe][Nspe]-NH2) | 13 µM | 2 µM | 2 µM | >100 µM |  |  |  |  |  | 
2 | C[C@@H](c1ccccc1)N(CC(N)=O)C(=O)CN(C(=O)CN(CCCCN)C(=O)CN(C(=O)CN(C(=O)CNCCCCN)[C@@H](C)c1ccccc1)[C@@H](C)c1ccccc1)[C@@H](C)c1ccccc1 [Peptoid 15, (NLysNspeNspe)2] (H-[Nlys][Nspe][Nspe][Nlys][Nspe][Nspe]-NH2) | >100 µM | 25 µM | 100 µM | 100 µM | some increased sensitivity | >100 µM | >100 µM |  |  | 
3 | C[C@@H](c1ccccc1)N(CC(N)=O)C(=O)CN(C(=O)CN(CCN)C(=O)CN(C(=O)CN(C(=O)CN(CCN)C(=O)CN(C(=O)CN(C(=O)CN(CCN)C(=O)CN(C(=O)CN(C(=O)CNCCN)[C@@H](C)c1ccccc1)[C@@H](C)c1ccccc1)[C@@H](C)c1ccccc1)[C@@H](C)c1ccccc1)[C@@H](C)c1ccccc1)[C@@H](C)c1ccccc1)[C@@H](C)c1ccccc1 [Peptoid 16, (NaeNspeNspe)4] (H-[Gly(N-2-aminoethyl)][Nspe][Nspe][Gly(N-2-aminoethyl)][Nspe][Nspe][Gly(N-2-aminoethyl)][Nspe][Nspe][Gly(N-2-aminoethyl)][Nspe][Nspe]-NH2) | 100 µM and > 100 µM | 2 µM | 2 µM | 50 µM |  |  |  | negligible activity |  | 
4 | C[C@@H](c1ccccc1)N(CC(N)=O)C(=O)CN(C(=O)CN(CCN)C(=O)CN(C(=O)CN(C(=O)CN(CCN)C(=O)CN(C(=O)CN(C(=O)CNCCN)[C@@H](C)c1ccccc1)[C@@H](C)c1ccccc1)[C@@H](C)c1ccccc1)[C@@H](C)c1ccccc1)[C@@H](C)c1ccccc1 [Peptoid 17, (NaeNspeNspe)3] | 25 µM | 13 µM | 2 µM | 100 µM and > 100 µM |  |  |  |  |  | 
5 | C[C@@H](c1ccccc1)N(CC(N)=O)C(=O)CN(C(=O)CN(CCN)C(=O)CN(C(=O)CN(C(=O)CNCCN)[C@@H](C)c1ccccc1)[C@@H](C)c1ccccc1)[C@@H](C)c1ccccc1 [Peptoid 18, (NaeNspeNspe)2] | >100 µM | 100 µM | 100 µM | 100 µM |  | >100 µM | >100 µM |  | >100 µM | 
6 | COc1ccc(CN(CC(N)=O)C(=O)CN(Cc2ccc(OC)cc2)C(=O)CN(CCCCN)C(=O)CN(Cc2ccc(OC)cc2)C(=O)CN(Cc2ccc(OC)cc2)C(=O)CN(CCCCN)C(=O)CN(Cc2ccc(OC)cc2)C(=O)CN(Cc2ccc(OC)cc2)C(=O)CN(CCCCN)C(=O)CN(Cc2ccc(OC)cc2)C(=O)CN(Cc2ccc(OC)cc2)C(=O)CNCCCCN)cc1 [Peptoid 19, (NLysNpmbNpmb)4] | >100 µM | 2 µM | 3 µM | 100 µM |  |  | >100 µM | negligible effect |  | negligible effect
7 | NCCCCNCC(=O)N(CC(=O)N(CC(=O)N(CCCCN)CC(=O)N(CC(=O)N(CC(=O)N(CCCCN)CC(=O)N(CC(=O)N(CC(=O)N(CCCCN)CC(=O)N(CC(=O)N(CC(N)=O)Cc1ccc(Cl)cc1)Cc1ccc(Cl)cc1)Cc1ccc(Cl)cc1)Cc1ccc(Cl)cc1)Cc1ccc(Cl)cc1)Cc1ccc(Cl)cc1)Cc1ccc(Cl)cc1)Cc1ccc(Cl)cc1 [Peptoid 20, (NLysNpcbNpcb)4] (H-[Nlys][Gly(Nα-4-Cl-benzyl)][Gly(Nα-4-Cl-benzyl)][Nlys][Gly(Nα-4-Cl-benzyl)][Gly(Nα-4-Cl-benzyl)][Nlys][Gly(Nα-4-Cl-benzyl)][Gly(Nα-4-Cl-benzyl)][Nlys][Gly(Nα-4-Cl-benzyl)][Gly(Nα-4-Cl-benzyl)]-NH2) | 100 µM and > 100 µM | 6 µM | 25 µM | 100 µM |  |  | >100 µM |  |  | 
8 | NCCCCNCC(=O)N(CC(=O)N(CC(=O)N(CCCCN)CC(=O)N(CC(=O)N(CC(=O)N(CCCCN)CC(=O)N(CC(=O)N(CC(N)=O)Cc1ccc(Cl)cc1)Cc1ccc(Cl)cc1)Cc1ccc(Cl)cc1)Cc1ccc(Cl)cc1)Cc1ccc(Cl)cc1)Cc1ccc(Cl)cc1 [Peptoid 21, (NLysNpcbNpcb)3] (H-[Nlys][Gly(Nα-4-Cl-benzyl)][Gly(Nα-4-Cl-benzyl)][Nlys][Gly(Nα-4-Cl-benzyl)][Gly(Nα-4-Cl-benzyl)][Nlys][Gly(Nα-4-Cl-benzyl)][Gly(Nα-4-Cl-benzyl)]-NH2) | 50 µM | 2 µM | 3 µM | 25 µM |  |  |  |  |  | 
9 | NCCCCNCC(=O)N(CC(=O)N(CC(=O)N(CCCCN)CC(=O)N(CC(=O)N(CC(=O)N(CCCCN)CC(=O)N(CC(=O)N(CC(=O)N(CCCCN)CC(=O)N(CC(=O)N(CC(N)=O)Cc1ccc(F)cc1)Cc1ccc(F)cc1)Cc1ccc(F)cc1)Cc1ccc(F)cc1)Cc1ccc(F)cc1)Cc1ccc(F)cc1)Cc1ccc(F)cc1)Cc1ccc(F)cc1 [Peptoid 22, (NLysNpfbNpfb)4] (H-[Nlys][N(4-F-Bzl)Gly][N(4-F-Bzl)Gly][Nlys][N(4-F-Bzl)Gly][N(4-F-Bzl)Gly][Nlys][N(4-F-Bzl)Gly][N(4-F-Bzl)Gly][Nlys][N(4-F-Bzl)Gly][N(4-F-Bzl)Gly]-NH2) | 13 µM | 1 µM | 2 µM | 25 µM |  | 2 µM |  |  |  | 
10 | NCCCCNCC(=O)N(CC(=O)N(CC(=O)N(CCCCN)CC(=O)N(CC(=O)N(CC(=O)N(CCCCN)CC(=O)N(CC(=O)N(CC(N)=O)Cc1ccc(F)cc1)Cc1ccc(F)cc1)Cc1ccc(F)cc1)Cc1ccc(F)cc1)Cc1ccc(F)cc1)Cc1ccc(F)cc1 [Peptoid 23, (NLysNpfbNpfb)3] (H-[Nlys][N(4-F-Bzl)Gly][N(4-F-Bzl)Gly][Nlys][N(4-F-Bzl)Gly][N(4-F-Bzl)Gly][Nlys][N(4-F-Bzl)Gly][N(4-F-Bzl)Gly]-NH2) | 13 µM | 3 µM | 3 µM | 25 µM |  |  |  |  |  | 
11 | NCCCCNCC(=O)N(CC(=O)N(CC(=O)N(CCCCN)CC(=O)N(CC(=O)N(CC(=O)N(CCCCN)CC(=O)N(CC(=O)N(CC(=O)N(CCCCN)CC(=O)N(CC(=O)N(CC(N)=O)Cc1cccc(F)c1)Cc1cccc(F)c1)Cc1cccc(F)c1)Cc1cccc(F)c1)Cc1cccc(F)c1)Cc1cccc(F)c1)Cc1cccc(F)c1)Cc1cccc(F)c1 [Peptoid 24, (NLysNmfbNmfb)4] | 25 µM | 3 µM | 6 µM | 25 µM |  |  |  |  |  | 
12 | NCCCCNCC(=O)N(CC(=O)N(CC(=O)N(CCCCN)CC(=O)N(CC(=O)N(CC(=O)N(CCCCN)CC(=O)N(CC(=O)N(CC(N)=O)Cc1cccc(F)c1)Cc1cccc(F)c1)Cc1cccc(F)c1)Cc1cccc(F)c1)Cc1cccc(F)c1)Cc1cccc(F)c1 [Peptoid 25, (NLysNmfbNmfb)3] | 13 µM | 2 µM | 6 µM | 25 µM |  |  |  |  |  | 
13 | C[C@@H](c1ccccc1)N(CC(N)=O)C(=O)CN(Cc1ccc(F)cc1)C(=O)CN(CCCCN)C(=O)CN(C(=O)CN(Cc1ccc(F)cc1)C(=O)CN(CCCCN)C(=O)CN(C(=O)CN(Cc1ccc(F)cc1)C(=O)CN(CCCCN)C(=O)CN(C(=O)CN(Cc1ccc(F)cc1)C(=O)CNCCCCN)[C@@H](C)c1ccccc1)[C@@H](C)c1ccccc1)[C@@H](C)c1ccccc1 [Peptoid 26, (NLysNpfbNspe)4] | 13 µM | 2 µM | 2 µM | 13 µM |  |  |  |  |  | 
14 | C[C@@H](c1ccccc1)N(CC(N)=O)C(=O)CN(Cc1ccc(F)cc1)C(=O)CN(CCCCN)C(=O)CN(C(=O)CN(Cc1ccc(F)cc1)C(=O)CN(CCCCN)C(=O)CN(C(=O)CN(Cc1ccc(F)cc1)C(=O)CNCCCCN)[C@@H](C)c1ccccc1)[C@@H](C)c1ccccc1 [Peptoid 27, (NLysNpfbNspe)3] | 25 µM | 2 µM | 3 µM | 25 µM |  |  |  |  |  | 
15 | C[C@@H](c1ccccc1)N(CC(N)=O)C(=O)CN(C(=O)CN(CCCCN)C(=O)CN(Cc1ccc(F)cc1)C(=O)CN(Cc1ccc(F)cc1)C(=O)CN(CCCCN)C(=O)CN(C(=O)CN(C(=O)CN(CCCCN)C(=O)CN(Cc1ccc(F)cc1)C(=O)CN(Cc1ccc(F)cc1)C(=O)CNCCCCN)[C@@H](C)c1ccccc1)[C@@H](C)c1ccccc1)[C@@H](C)c1ccccc1 [Peptoid 28, [(NLysNpfbNpfb)(NLysNspeNspe)]2] | 6 µM | 1 µM | 2 µM | 50 µM |  |  |  |  | < 1 µM | 
16 | C[C@@H](c1ccccc1)N(CC(N)=O)C(=O)CN(C(=O)CN(CCCCN)C(=O)CN(Cc1ccc(F)cc1)C(=O)CN(Cc1ccc(F)cc1)C(=O)CN(CCCCN)C(=O)CN(C(=O)CN(C(=O)CNCCCCN)[C@@H](C)c1ccccc1)[C@@H](C)c1ccccc1)[C@@H](C)c1ccccc1 [Peptoid 29, (NLysNspeNspe)(NLysNpfbNpfb)(NLysNspeNspe)] | 13 µM | 2 µM | 3 µM | 25 µM |  |  |  |  |  | 
